According to patent publication US7476754B2, “Biphenyl derived thiamides as calpain inhibitors” (Consejo Superior de Investigaciones Cientificas, priority 2004, dated 2009):
pIC50: −log10 of the molar value.

Target: T1, calpain I (Sus scrofa, UniProt P35750)
T1 construct: The calpain I from porcine erythrocytes; purchased CALBIOCHEM; host or cells: porcine erythrocytes (tissue-purified)
T1 sequence (P35750 1-714): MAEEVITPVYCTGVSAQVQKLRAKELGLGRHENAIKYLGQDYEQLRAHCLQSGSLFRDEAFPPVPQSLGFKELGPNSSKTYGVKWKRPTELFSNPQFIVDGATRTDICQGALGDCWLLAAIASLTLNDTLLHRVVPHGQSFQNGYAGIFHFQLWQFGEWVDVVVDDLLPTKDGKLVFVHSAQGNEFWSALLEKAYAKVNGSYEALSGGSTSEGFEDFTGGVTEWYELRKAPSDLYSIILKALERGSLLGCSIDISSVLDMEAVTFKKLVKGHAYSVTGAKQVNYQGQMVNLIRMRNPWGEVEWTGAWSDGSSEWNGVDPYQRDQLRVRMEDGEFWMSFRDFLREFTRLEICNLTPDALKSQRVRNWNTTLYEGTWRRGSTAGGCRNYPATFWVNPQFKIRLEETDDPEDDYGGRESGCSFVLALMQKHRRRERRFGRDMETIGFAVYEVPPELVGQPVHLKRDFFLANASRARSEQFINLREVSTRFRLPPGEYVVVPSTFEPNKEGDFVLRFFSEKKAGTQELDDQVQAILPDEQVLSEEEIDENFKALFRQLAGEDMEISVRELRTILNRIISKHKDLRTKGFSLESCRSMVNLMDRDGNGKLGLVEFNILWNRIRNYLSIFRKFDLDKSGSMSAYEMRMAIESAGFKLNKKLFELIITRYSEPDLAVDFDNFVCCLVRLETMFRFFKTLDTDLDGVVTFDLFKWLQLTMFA
T1 sequence (P04574 1-266 partner): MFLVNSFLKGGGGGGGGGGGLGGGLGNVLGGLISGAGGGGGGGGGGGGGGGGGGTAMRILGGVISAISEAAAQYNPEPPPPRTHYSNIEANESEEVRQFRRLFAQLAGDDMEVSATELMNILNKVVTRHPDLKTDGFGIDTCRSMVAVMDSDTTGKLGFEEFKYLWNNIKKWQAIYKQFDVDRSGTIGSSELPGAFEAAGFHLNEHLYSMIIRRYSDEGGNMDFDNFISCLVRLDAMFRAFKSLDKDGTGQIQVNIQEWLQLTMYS
Assay: Enzyme activity test: inhibition of calpain (EnzCheck protease assay kit, BODIPY FL casein, fluorescence)
Assay type: biochemical
Conditions: calpain I from porcine erythrocytes; BODIPY FL casein substrate; Tris-HCl pH 7.8; triplicate
Source text: The calpain inhibition capacity has been quantified in terms of the value of IC50, which is defined as the concentration of inhibitor that reduces the catalytic activity of an enzyme by half. The lower the value of IC50, the more powerful the inhibitor. Inhibition results on calpain I (the most relevant from a physiological point of view) of some compounds of the present invention are shown in table 1 and in FIG. 1. Given that calpain II, also known as milli-calpain, needs a greater amount of calcium for activation, it might not possibly have such a relevant physiological role since such a concentration of calcium would cause cell death before the milli-calpain could become activated. For this reason, the inhibition tests have been performed for calpain I, though they can be extrapolated for calpain II.
The calpain inhibition capacity has been quantified in terms of the value of IC50, which is defined as the concentration of inhibitor that reduces the catalytic activity of an enzyme by half. The lower the value of IC50, the more powerful the inhibitor. Inhibition results on calpain I (the most relevant from a physiological point of view) of some compounds of the present invention are shown in table 1 and in FIG. 1.
In order to carry out the inhibition test on calpains, we used the EnzCheck® Protease Assay Kit E-338 from Molecular Probes. This kit contains casein marked with BODIPY FL®, freeze-dried from phosphate buffer. Also used as a digestion buffer was Tris-HCl at pH 7.8, containing 2 mM of sodium azide. The calpain I from porcine erythrocytes or calpain II from porcine kidney that were used are commercial products from CALBIOCHEM®. The enzyme stock solution contained 20 mM of imidazol-HCl buffer, pH 6.8, 1 mM EDTA, 1 mM EGTA, 5 mM β-mercaptoethanol, 30% in glycerol.
The synthetic inhibitors were dissolved in 250 μL of DMSO. The tests were conducted on 96-well microplates in a final volume of 200 μL. In order to carry out the test, aliquots of stock solution of calpain were added to 150 μL of a 10 μg/μL solution in digestion buffer in order to obtain a final concentration of 50 ng/mL of enzyme. Minimum quantities were added, between 5 and 20 μL of inhibitor solution in DMSO, previously diluted in order to achieve the desired final concentration of inhibitor, and digestion buffer was added until a volume of 190 μL was achieved. The test commenced by adding 10 μL of 0.05 M CaCl2 solution. For each inhibitor, separate measurements excluding inhibitor, calpain and calcium solution were taken as blanks. All measurements were made in triplicate.
The fluorescence measurements were made in a SPECTRAFLUOR TECAN Corp 93382 spectrum fluorimeter, exciting at 485 nm and taking the reading at 530 nm. The measurement was made over 20 cycles until the measurement of all wells was completed. Stirring was orbital type and took place each cycle.

| Compound | pIC50 |
| --- | --- |
| COC(=O)[C@H](Cc1ccccc1)NC(=O)c1ccccc1-c1ccccc1C(=S)N[C@@H](Cc1ccccc1)C(=O)OC [Compound 2, Methyl (S,S)-3-phenyl-2-{[2′-(2-phenyl-1-methoxycarbonyl-ethylthio-carbamoyl)-biphenyl-2-carbonyl]-amino}-propionate] | 4.20 |
| COC(=O)[C@H](Cc1c[nH]c2ccccc12)NC(=S)c1ccccc1-c1ccccc1C(=S)N[C@@H](Cc1c[nH]c2ccccc12)C(=O)OC [Compound 3, Methyl (S,S)-3-(1H-Indol-3-yl)-2-{[2′-(2-(1H-Indol-3-yl)-1-methoxycarbonyl-ethylthiocarbamoyl)-biphenyl-2-carbothioyl]-amino}-propionate] | 10.42 |
| COC(=O)[C@H](Cc1c[nH]c2ccccc12)NC(=O)c1ccccc1-c1ccccc1C(=S)N[C@@H](Cc1c[nH]c2ccccc12)C(=O)OC [Compound 4, Methyl (S,S)-3-(1H-Indol-3-yl)-2-{[2′-(2-(1H-Indol-3-yl)-1-methoxycarbonyl-ethylthiocarbamoyl)-biphenyl-2-carbonyl]-amino}-propionate] | 7.16 |
| COC(=O)[C@H](Cc1ccc(O)cc1)NC(=O)c1ccccc1-c1ccccc1C(=S)N[C@@H](Cc1ccc(O)cc1)C(=O)OC [Compound 8] | 4.92 |

The next lines start with the values.

| pIC50 | Compound |
| --- | --- |
| 4.03 | COC(=O)[C@H](Cc1ccccc1)NC(=S)c1ccccc1-c1ccccc1C(=S)N[C@@H](Cc1ccccc1)C(=O)OC [Compound 1, Methyl (S,S)-3-phenyl-2-{[2′-(2-phenyl-1-methoxycarbonyl-ethylthio-carbamoyl)-biphenyl-2-carbothiol]-amino}—propionate] |
| 7.15 | COC(=O)[C@@H](NC(=S)c1ccccc1-c1ccccc1C(=S)N[C@H](C(=O)OC)C(C)C)C(C)C [Compound 5, Methyl (S,S)-2-{[2′-(1-methoxycarbonyl-2-methyl-propylthiocarbamoyl)-biphenyl-2-carbothioyl]-amino}-3-methyl-butyrate] |
| 10.28 | COC(=O)[C@@H](NC(=O)c1ccccc1-c1ccccc1C(=S)N[C@H](C(=O)OC)C(C)C)C(C)C [Compound 6, Methyl (S,S)-2-{[2′-(1-methoxycarbonyl-2-methyl-propylthiocarbamoyl)-biphenyl-2-carbonyl]-amino}-3-methyl-butyrate] |
| 6.10 | COC(=O)[C@H](Cc1ccc(O)cc1)NC(=S)c1ccccc1-c1ccccc1C(=S)N[C@@H](Cc1ccc(O)cc1)C(=O)OC [Compound 7] |
